Experimental data published in US20040224884A1, “Methods of screening for apoptosis-controlling agents for bone anabolic therapies and uses thereof” (priority 1998, published 2004).

Target: T1, human ERα (Homo sapiens, UniProt P03372)
T1 construct: expressed in transfected cells; host or cells: 293 human embryonic kidney cells
T1 sequence (P03372 1-595): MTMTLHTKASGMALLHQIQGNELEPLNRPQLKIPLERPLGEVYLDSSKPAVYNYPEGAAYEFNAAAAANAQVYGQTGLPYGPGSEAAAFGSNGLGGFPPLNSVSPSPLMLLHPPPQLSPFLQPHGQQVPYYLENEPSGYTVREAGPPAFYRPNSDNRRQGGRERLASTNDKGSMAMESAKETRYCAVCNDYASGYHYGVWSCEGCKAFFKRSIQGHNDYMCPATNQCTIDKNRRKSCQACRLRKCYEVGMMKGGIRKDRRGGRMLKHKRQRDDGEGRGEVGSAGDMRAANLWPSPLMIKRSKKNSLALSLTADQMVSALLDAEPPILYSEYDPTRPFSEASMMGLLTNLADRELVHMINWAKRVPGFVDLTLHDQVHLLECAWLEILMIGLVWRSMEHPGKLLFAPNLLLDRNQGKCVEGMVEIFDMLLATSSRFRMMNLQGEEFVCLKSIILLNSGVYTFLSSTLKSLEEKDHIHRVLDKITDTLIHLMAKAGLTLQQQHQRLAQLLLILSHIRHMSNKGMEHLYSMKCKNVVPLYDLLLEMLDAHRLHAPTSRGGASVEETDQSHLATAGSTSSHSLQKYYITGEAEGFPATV
Test: ERE-luciferase reporter in 293 cells overexpressing hERα
Assay type: cell-based
Conditions: 3 copies of ERE driving luciferase
From the text: The human ERα was overexpressed in 293 cells lacking ERα along with a reporter construct containing 3 copies of a n estrogen response element driving the luciferase gene. Light units were counted and normalized to coexpressed b-galactosidase activity to control for differences in transfection efficiency. Results represent percent stimulation compared to ERα transfected cells, but not treated with the two agents. Each bar represents mean of duplicate experiments +/−SEM. *p<0.001 vs. cells not exposed to the sterols.
In this experiment, hERα was overexpressed in 293 cells (which lack constitutive ERα) along with a reporter construct containing 3 copies of an estrogen response element driving the luciferase gene. Light units were counted and normalized to coexpressed β-galactosidase activity to control for differences in transfection efficiency.

## C[C@@]12CCC[C@H]1[C@@H]1CCc3cc(O)ccc3[C@H]1CC2 [estratriene-3-ol]
  transactivation of an estrogen response element through estrogen receptor α: did not transactivate
